What was measured:
[1] = target: T1, HiBit-BRG1 fusion protein (Homo sapiens, UniProt P51532); test: HiBiT-BRG1 cell-based degradation assay (Nano-Glo HiBiT Lytic Detection, 24 h); settings: stable HeLa cell line expressing HiBit-BRG1 and LgBit; for Dmax: read-out: BRG1 HiBit Degradation Maximum (%); for DC50: read-out: BRMG1 HiBit Degradation IC50
T1 construct: expressed in transfected cells
Outline: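 HeLa cells stably expressing HiBit-BRG1 and LgBit, treated 24 h with 3-fold dilutions (10 points, duplicate, 30 μM final top dose). Luminescence read after Nano-Glo HiBiT lytic reagent; % degradation scaled between DMSO (high) and 2 μM reference BRM/BRG1 degrader (low control).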

HiBit-BRM fusion protein = target: T2, HiBit-BRM fusion protein (Homo sapiens, UniProt P51531); test: HiBiT-BRM cell-based degradation assay (Nano-Glo HiBiT Lytic Detection, 24 h); settings: stable HeLa cell line expressing HiBiT-BRM; for DC50: read-out: BRM HiBit Degradation IC50
T2 construct: expressed in transfected cells
T2 sequence (P51531 whole entry, the tested form may be a part): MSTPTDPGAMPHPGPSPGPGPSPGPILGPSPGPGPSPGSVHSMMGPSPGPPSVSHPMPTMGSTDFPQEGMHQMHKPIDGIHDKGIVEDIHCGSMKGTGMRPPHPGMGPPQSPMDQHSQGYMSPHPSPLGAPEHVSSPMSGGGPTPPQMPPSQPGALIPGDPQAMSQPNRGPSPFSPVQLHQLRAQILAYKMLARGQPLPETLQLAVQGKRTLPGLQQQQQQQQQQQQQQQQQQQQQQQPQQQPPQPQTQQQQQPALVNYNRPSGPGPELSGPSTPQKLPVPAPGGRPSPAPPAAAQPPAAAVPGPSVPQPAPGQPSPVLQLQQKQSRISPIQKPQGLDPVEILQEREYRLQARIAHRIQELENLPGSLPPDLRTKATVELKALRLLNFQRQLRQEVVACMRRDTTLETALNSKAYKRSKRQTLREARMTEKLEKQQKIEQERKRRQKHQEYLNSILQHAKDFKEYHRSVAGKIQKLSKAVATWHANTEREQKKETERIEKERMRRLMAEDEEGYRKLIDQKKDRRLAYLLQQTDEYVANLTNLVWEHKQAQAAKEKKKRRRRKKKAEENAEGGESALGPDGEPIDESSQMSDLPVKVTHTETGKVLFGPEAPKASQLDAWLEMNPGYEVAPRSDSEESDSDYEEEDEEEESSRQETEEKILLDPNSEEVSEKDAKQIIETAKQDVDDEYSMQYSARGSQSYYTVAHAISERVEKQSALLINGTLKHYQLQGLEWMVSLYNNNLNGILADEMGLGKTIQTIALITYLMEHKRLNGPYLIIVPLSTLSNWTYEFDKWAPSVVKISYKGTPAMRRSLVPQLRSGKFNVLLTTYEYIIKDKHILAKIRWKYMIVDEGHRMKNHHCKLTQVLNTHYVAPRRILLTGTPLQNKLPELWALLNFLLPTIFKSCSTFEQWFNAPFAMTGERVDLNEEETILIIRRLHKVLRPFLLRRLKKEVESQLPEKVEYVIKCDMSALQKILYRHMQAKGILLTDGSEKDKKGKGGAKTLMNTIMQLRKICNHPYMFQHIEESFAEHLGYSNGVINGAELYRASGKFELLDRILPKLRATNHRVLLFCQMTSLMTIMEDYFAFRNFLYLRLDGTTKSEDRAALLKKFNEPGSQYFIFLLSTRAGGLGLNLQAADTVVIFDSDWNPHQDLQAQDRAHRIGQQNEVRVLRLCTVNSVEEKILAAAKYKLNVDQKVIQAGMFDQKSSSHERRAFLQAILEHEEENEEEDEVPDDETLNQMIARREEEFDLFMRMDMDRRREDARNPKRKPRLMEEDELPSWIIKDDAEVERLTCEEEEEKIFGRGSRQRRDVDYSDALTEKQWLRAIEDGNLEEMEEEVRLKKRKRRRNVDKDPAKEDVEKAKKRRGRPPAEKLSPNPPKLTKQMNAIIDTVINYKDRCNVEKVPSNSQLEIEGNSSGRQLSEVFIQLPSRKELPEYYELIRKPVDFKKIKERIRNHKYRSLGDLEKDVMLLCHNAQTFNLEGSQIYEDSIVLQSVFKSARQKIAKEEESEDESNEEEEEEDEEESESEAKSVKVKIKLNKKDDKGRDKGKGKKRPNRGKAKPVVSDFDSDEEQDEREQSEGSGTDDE
Outline: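 A stable HeLa line expressing HiBiT-BRM was treated for 24 h with compound in a 10-point, 3-fold series (30 μM final top dose). Remaining HiBiT-BRM was read by lytic LgBiT complementation luminescence. % degradation was normalised to DMSO (high control) and 2 μM reference BRM/BRG1 degrader (low control).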

T1 sequence (P51532 whole entry, the tested form may be a part): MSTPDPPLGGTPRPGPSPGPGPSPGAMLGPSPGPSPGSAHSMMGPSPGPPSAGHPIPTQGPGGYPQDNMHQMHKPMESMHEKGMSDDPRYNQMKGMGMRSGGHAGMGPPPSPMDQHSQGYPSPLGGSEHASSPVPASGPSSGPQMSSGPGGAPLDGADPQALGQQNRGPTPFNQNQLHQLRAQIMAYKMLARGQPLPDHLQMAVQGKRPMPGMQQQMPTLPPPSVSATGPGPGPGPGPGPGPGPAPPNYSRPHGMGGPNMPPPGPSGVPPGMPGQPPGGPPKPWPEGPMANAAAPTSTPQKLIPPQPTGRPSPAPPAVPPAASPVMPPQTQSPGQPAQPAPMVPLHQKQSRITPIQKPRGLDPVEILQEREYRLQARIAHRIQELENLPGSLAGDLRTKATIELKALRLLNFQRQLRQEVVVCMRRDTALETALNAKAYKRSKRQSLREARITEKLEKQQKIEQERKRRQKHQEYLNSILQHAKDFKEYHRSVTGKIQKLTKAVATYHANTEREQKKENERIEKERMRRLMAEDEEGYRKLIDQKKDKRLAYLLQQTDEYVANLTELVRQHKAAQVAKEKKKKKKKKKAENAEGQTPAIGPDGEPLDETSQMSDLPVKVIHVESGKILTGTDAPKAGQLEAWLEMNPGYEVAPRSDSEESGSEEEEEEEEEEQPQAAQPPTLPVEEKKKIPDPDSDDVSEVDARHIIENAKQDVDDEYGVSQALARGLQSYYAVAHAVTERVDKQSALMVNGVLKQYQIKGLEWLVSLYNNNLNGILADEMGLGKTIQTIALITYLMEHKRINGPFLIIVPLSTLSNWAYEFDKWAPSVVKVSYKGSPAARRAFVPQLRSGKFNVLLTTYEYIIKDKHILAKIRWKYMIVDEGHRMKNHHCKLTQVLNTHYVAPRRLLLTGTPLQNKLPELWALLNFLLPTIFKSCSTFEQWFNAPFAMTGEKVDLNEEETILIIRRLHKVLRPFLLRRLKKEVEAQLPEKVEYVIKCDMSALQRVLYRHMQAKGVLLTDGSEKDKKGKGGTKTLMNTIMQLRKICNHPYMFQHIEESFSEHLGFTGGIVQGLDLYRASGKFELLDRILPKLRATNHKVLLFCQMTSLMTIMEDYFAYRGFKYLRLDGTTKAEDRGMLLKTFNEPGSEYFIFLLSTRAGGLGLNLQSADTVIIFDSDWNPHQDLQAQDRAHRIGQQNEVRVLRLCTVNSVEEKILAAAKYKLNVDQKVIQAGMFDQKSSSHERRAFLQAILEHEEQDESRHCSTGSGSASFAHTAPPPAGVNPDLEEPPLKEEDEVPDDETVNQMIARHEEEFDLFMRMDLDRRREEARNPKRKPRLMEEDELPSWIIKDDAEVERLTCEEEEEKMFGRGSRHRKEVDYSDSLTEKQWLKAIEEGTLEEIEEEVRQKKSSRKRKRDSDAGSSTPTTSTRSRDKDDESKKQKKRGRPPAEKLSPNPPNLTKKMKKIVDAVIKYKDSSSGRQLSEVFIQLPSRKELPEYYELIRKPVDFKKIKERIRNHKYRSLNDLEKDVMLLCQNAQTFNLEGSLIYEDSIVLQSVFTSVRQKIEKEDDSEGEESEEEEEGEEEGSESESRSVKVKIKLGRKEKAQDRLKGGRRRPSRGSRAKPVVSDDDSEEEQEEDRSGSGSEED

Dmax [1]	DC50 (HiBit-BRM fusion protein)	DC50 [1]	SMILES	BRM HiBit Degradation Maximum (%) (HiBit-BRM fusion protein)
< 50%	> 10 nM	–	Cc1nc(N2CC[C@@H](c3sc4nnc(-c5ccccc5O)cc4c3C)C2)ccc1-c1cc([C@H](C(=O)N2C[C@H](O)C[C@H]2C(=O)N[C@@H](C)c2ccc(-c3scnc3C)cc2)C(C)C)on1 [Compound 94, (2S,4R)-4-hydroxy-1-((R)-2-(3-(6-((R)-3-(3-(2-hydroxyphenyl)-5-methylthieno[2,3-c]pyridazin-6-yl)pyrrolidin-1-yl)-2-methylpyridin-3-yl)isoxazol-5-yl)-3-methylbutanoyl)-N-((S)-1-(4-(4-methylthiazol-5-yl)phenyl)ethyl)pyrrolidine-2-carboxamide]	A (“A” indicates maximum degradation ≥75%)
> 50%	< 10 nM	> 100 nM	Cc1ncsc1-c1ccc([C@H](C)NC(=O)[C@@H]2C[C@@H](O)CN2C(=O)[C@@H](c2cc(N3CCC4(CC[C@@H](c5sc6nnc(-c7ccccc7O)cc6c5C)C4)CC3)no2)C(C)C)cc1 [Compound 77, (2S,4R)-4-hydroxy-1-((R)-2-(3-((R)-2-(3-(2-hydroxyphenyl)-5-methylthieno[2,3-c]pyridazin-6-yl)-8-azaspiro[4.5]decan-8-yl)isoxazol-5-yl)-3-methylbutanoyl)-N-((S)-1-(4-(4-methylthiazol-5-yl)phenyl)ethyl)pyrrolidine-2-carboxamide]	A (“A” indicates maximum degradation ≥75%)
< 50%	< 10 nM	> 1000 nM	Cc1ncsc1-c1ccc([C@H](C)NC(=O)[C@@H]2C[C@@H](O)CN2C(=O)[C@@H](c2cc(-c3cnc(N4CCC(c5sc6nnc(-c7ccccc7O)cc6c5C)CC4)nc3)no2)C(C)C)cc1 (single isomer, unassigned) [Compound 66]	A (“A” indicates maximum degradation ≥75%)
> 50%	> 100 nM	> 1000 nM	Cc1ncsc1-c1ccc([C@H](C)NC(=O)[C@@H]2C[C@@H](O)CN2C(=O)[C@@H](c2cc(C#Cc3sc4nnc(-c5ccccc5O)cc4c3C)no2)C(C)C)cc1 (single isomer, unassigned) [Compound 37]	A (“A” indicates maximum degradation ≥75%)
< 50%	> 10 nM	–	Cc1ncsc1-c1ccc([C@H](C)NC(=O)[C@@H]2C[C@@H](O)CN2C(=O)[C@@H](c2cc(N3CCC4(CC[C@H](c5sc6nnc(-c7ccccc7O)cc6c5C)C4)CC3)no2)C(C)C)cc1 [Compound 81, (2S,4R)-4-hydroxy-1-((R)-2-(3-((S)-2-(3-(2-hydroxyphenyl)-5-methylthieno[2,3-c]pyridazin-6-yl)-8-azaspiro[4.5]decan-8-yl)isoxazol-5-yl)-3-methylbutanoyl)-N-((S)-1-(4-(4-methylthiazol-5-yl)phenyl)ethyl)pyrrolidine-2-carboxamide]	A (“A” indicates maximum degradation ≥75%)
> 50%	< 10 nM	> 10 nM	Cc1ncsc1-c1ccc([C@H](C)NC(=O)[C@@H]2C[C@@H](O)CN2C(=O)[C@@H](c2cc(-c3c(C)nc(N4CCC(c5sc6nnc(-c7ccccc7O)cc6c5C)CC4)nc3C)no2)C(C)C)cc1 [Compound 11, (2S,4R)-4-hydroxy-1-((R)-2-(3-(2-(4-(3-(2-hydroxyphenyl)-5-methylthieno[2,3-c]pyridazin-6-yl)piperidin-1-yl)-4,6-dimethylpyrimidin-5-yl)isoxazol-5-yl)-3-methylbutanoyl)-N-((S)-1-(4-(4-methylthiazol-5-yl)phenyl)ethyl)pyrrolidine-2-carboxamide]	A (“A” indicates maximum degradation ≥75%)
< 50%	< 10 nM	> 1000 nM	Cc1ncsc1-c1ccc([C@H](C)NC(=O)[C@@H]2C[C@@H](O)CN2C(=O)[C@@H](c2cc(-c3cnc(N4CC(c5sc6nnc(-c7ccccc7O)cc6c5C)C4)nc3)no2)C(C)C)cc1 (single isomer, unassigned) [Compound 63]	A (“A” indicates maximum degradation ≥75%)
> 50%	< 10 nM	–	Cc1ncsc1-c1ccc([C@H](C)NC(=O)[C@@H]2C[C@@H](O)CN2C(=O)[C@@H](c2cc(N3CC4(C3)CN(c3sc5nnc(-c6ccccc6O)cc5c3C)C4)no2)C(C)C)cc1 [Compound 79, (2S,4R)-4-hydroxy-1-((R)-2-(3-(6-(3-(2-hydroxyphenyl)-5-methylthieno[2,3-c]pyridazin-6-yl)-2,6-diazaspiro[3.3]heptan-2-yl)isoxazol-5-yl)-3-methylbutanoyl)-N-((S)-1-(4-(4-methylthiazol-5-yl)phenyl)ethyl)pyrrolidine-2-carboxamide]	A (“A” indicates maximum degradation ≥75%)
< 50%	< 10 nM	–	Cc1ncsc1-c1ccc([C@H](C)NC(=O)[C@@H]2C[C@@H](O)CN2C(=O)C(c2cc(N3CC4(C3)CN(c3cc5nnc(-c6ccccc6O)cc5s3)C4)no2)C(C)C)cc1 (stereo partly drawn) [Compound 67, (2S,4R)-4-hydroxy-1-(2-(3-(6-(3-(2-hydroxyphenyl)thieno[3,2-c]pyridazin-6-yl)-2,6-diazaspiro[3.3]heptan-2-yl)isoxazol-5-yl)-3-methylbutanoyl)-N-((S)-1-(4-(4-methylthiazol-5-yl)phenyl)ethyl)pyrrolidine-2-carboxamide]	A (“A” indicates maximum degradation ≥75%)
< 50%	> 1000 nM	> 1000 nM	Cc1ncsc1-c1ccc([C@H](C)NC(=O)[C@@H]2C[C@@H](O)CN2C(=O)[C@@H](c2cc(-c3cnc(N4C[C@H]5C[C@@H]4C[C@H]5c4cc5cc(-c6ccccc6O)nnc5s4)nc3)no2)C(C)C)cc1 [Compound 13, (2S,4R)-4-hydroxy-1-((R)-2-(3-(2-((1R,4S,5R)-5-(3-(2-hydroxyphenyl)thieno[2,3-c]pyridazin-6-yl)-2-azabicyclo[2.2.1]heptan-2-yl)pyrimidin-5-yl)isoxazol-5-yl)-3-methylbutanoyl)-N-((S)-1-(4-(4-methylthiazol-5-yl)phenyl)ethyl)pyrrolidine-2-carboxamide]	C (“C” indicates maximum degradation <50%)
< 50%	< 10 nM	> 1000 nM	Cc1ncsc1-c1ccc([C@H](C)NC(=O)[C@@H]2C[C@@H](O)CN2C(=O)[C@@H](c2cc(N3CC4(CC(c5sc6nnc(-c7ccccc7O)cc6c5C)C4)C3)no2)C(C)C)cc1 [Compound 23, (2S,4R)-4-hydroxy-1-((R)-2-(3-(6-(3-(2-hydroxyphenyl)-5-methylthieno[2,3-c]pyridazin-6-yl)-2-azaspiro[3.3]heptan-2-yl)isoxazol-5-yl)-3-methylbutanoyl)-N-((S)-1-(4-(4-methylthiazol-5-yl)phenyl)ethyl)pyrrolidine-2-carboxamide]	A (“A” indicates maximum degradation ≥75%)
> 50%	< 10 nM	> 10 nM	Cc1nc(N2CCC(c3sc4nnc(-c5ccccc5O)cc4c3C)CC2)ccc1-c1cc([C@H](C(=O)N2C[C@H](O)C[C@H]2C(=O)N[C@@H](C)c2ccc(-c3scnc3C)cc2)C(C)C)on1 [Compound 42, (2S,4R)-4-hydroxy-1-((R)-2-(3-(6-(4-(3-(2-hydroxyphenyl)-5-methylthieno[2,3-c]pyridazin-6-yl)piperidin-1-yl)-2-methylpyridin-3-yl)isoxazol-5-yl)-3-methylbutanoyl)-N-((S)-1-(4-(4-methylthiazol-5-yl)phenyl)ethyl)pyrrolidine-2-carboxamide]	A (“A” indicates maximum degradation ≥75%)
< 50%	> 10 nM	> 1000 nM	Cc1ncsc1-c1ccc([C@H](C)NC(=O)[C@@H]2C[C@@H](O)CN2C(=O)[C@@H](c2cc(-c3ccc(N4CCC(c5cc6cc(-c7ccccc7O)nnc6s5)CC4)nn3)no2)C(C)C)cc1 [Compound 33, (2S,4R)-4-hydroxy-1-((R)-2-(3-(6-(4-(3-(2-hydroxyphenyl)thieno[2,3-c]pyridazin-6-yl)piperidin-1-yl)pyridazin-3-yl)isoxazol-5-yl)-3-methylbutanoyl)-N-((S)-1-(4-(4-methylthiazol-5-yl)phenyl)ethyl)pyrrolidine-2-carboxamide]	A (“A” indicates maximum degradation ≥75%)
< 50%	> 1000 nM	> 1000 nM	Cc1ncsc1-c1ccc([C@H](C)NC(=O)[C@@H]2C[C@@H](O)CN2C(=O)C(c2cc(Oc3nccc(N4CCC(c5sc6nnc(-c7ccccc7O)cc6c5C)CC4)n3)no2)C(C)C)cc1 (single isomer, unassigned) [Compound 61, (2S,4R)-4-hydroxy-1-[(2R*)-2-{3-[(4-{4-[3-(2-hydroxyphenyl)-5-methylthieno[2,3-c]pyridazin-6-yl]piperidin-1-yl}pyrimidin-2-yl)oxy]-1,2-oxazol-5-yl}-3-methylbutanoyl]-N-[(1S)-1-[4-(4-methyl-1,3-thiazol-5-yl)phenyl]ethyl]pyrrolidine-2-carboxamide]	C (“C” indicates maximum degradation <50%)
